What all share (format): physicochemical
Data set [1] is described as follows: stability of tablets stored at 40°C/75% RH (assay and impurities). The settings on record: triacetin used as plasticizer in the coating formulation. The text has this:
The intragranular components were blended with water in a high shear mixer. The resulting granulate was dried in a fluid bed dryer. The granulate was sieved through an appropriate mesh size sieve. Microcrystalline cellulose and croscarmellose sodium were sieved through a suitable mesh size sieve for deagglomeration. The excipients were mixed with the sieved granulate in a diffusion mixer. Magnesium stearate was sieved through an appropriate sieve to deagglomerate and mixed with the powder mix in a diffusion mixer. The homogeneous powder obtained, was compressed using a rotating tablet press using appropriate punches. Part of the tablets were coated with a water suspension of Opadry® II White 31K28459 coating until 3% weight gain (= […]). The tablets were packed in suitable packaging material and were stored at 40°C/75% RH.
Hydroxypropyl cellulose was dissolved in water and blended with the other intragranular components in a high shear mixer. The resulting granulate was dried in a fluid bed dryer. The granulate was sieved through an appropriate mesh size sieve. Microcrystalline cellulose and croscarmellose sodium were sieved through a suitable mesh size sieve for deagglomeration. The excipients were mixed with the sieved granulate in a tumbling mixer. […]

Data set [2] in a line: solubility at different pH values. The source says:
Table 1 gives an overview of the solubility of anhydrous dasatinib ("N-6") and dasatinib monohydrate ("H1-7") at different pH values. Table 1: solubility of anhydrous dasatinib ("N-6") and dasatinib monohydrate ("H1-7")

Data set [3] is described as follows: form conversion during wet granulation in water. The following applies: during the process of granulation in water.
Experimental: The wet granulation process is performed with a granulation solvent selected from the group consisting of water, acetone, ethanol, isopropanol or a mixture thereof.

The structures appear in SMILES notation. Converted amounts (≈) assume the structure as drawn. Read-outs that look alike come from different tables or passages of the source.

Consider `Cc1nc(Nc2ncc(C(=O)Nc3c(C)cccc3Cl)s2)cc(N2CCN(CCO)CC2)n1` [Anhydrous dasatinib ("N-6"), N-(2-chloro-6-methylphenyl)-2-[[6-[4-(2-hydroxyethyl)-1-piperazinyl]-2-methyl-4-pyrimidinyl]amino]-5-thiazolecarboxamide], for which the “reaction with the organic ester triacetin” value in data set [1] was “does not react”. Further, the solubility (commonly the dissolved amount per volume that the medium holds) in data set [2] (pH 1.2) is 34510 µg/mL (≈ 70700 µM); in data set [2] (pH 1.2, listed as anhydrous form "N-6") it was 34510 µg/mL (≈ 70700 µM); in data set [2] (pH 4.5, aqueous buffer, pH 4.5, read-out: solubility) it was 179 µg/mL (≈ 367 µM); in data set [2] (pH 6.8) it was 1.8 µg/mL (≈ 3.69 µM). Further, the “conversion into dasatinib monohydrate” value in data set [3] is on record as “does not convert into dasatinib monohydrate”.

For the molecule `Cc1nc(Nc2ncc(C(=O)Nc3c(C)cccc3Cl)s2)cc(N2CCN(CCO)CC2)n1` [Dasatinib monohydrate ("H1-7"), N-(2-chloro-6-methylphenyl)-2-[[6-[4-(2-hydroxyethyl)-1-piperazinyl]-2-methyl-4-pyrimidinyl]amino]-5-thiazolecarboxamide], the solubility in data set [2] (pH 1.2) came out at 2850 µg/mL; in data set [2] (pH 1.2, listed as dasatinib monohydrate "H1-7"), 2850 µg/mL; in data set [2] (pH 4.5) it was 134 µg/mL; in data set [2] (pH 6.8), 0.6 µg/mL.

The values are drawn from patent publication EP3389640B1, “PHARMACEUTICAL COMPOSITION COMPRISING ANHYDROUS DASATINIB” (Synthon B.V., priority 2015, dated 2017).
